Like-named read-outs stand apart in the source and are kept apart here. Marks after values point to notes of the source that are not given here. Values belong to the compound of their own block, whether it stands above or below them.
Tests used:
[1] = cited from earlier work
[2] = test system: E3 receptor complex / E2 receptor complex; details: cited from earlier work
BC cells = details: depends on concentration and duration of action; cited from earlier work
[3] = assay type: in vivo, human; details: for AUC(0–24),C2: parameter not reliable; for AUC(0-t) / Cmax / concentration at -0.5 h / Tmax: serum, other: vaginal, 0.03 mg
nuclear ER = details: cited from earlier work
breast cancer = details: retrospective cohort study in Finland, postmenopausal patients; cited from earlier work
[4] = cited from earlier work; remark: listed apart in the source
[5] = vaginal ring or tablets with E2, postmenopausal BC patients (no AI therapy)
[6] = after 4 weeks of daily application

SMILES: C[C@]12CC[C@@H]3c4ccc(O)cc4CC[C@H]3[C@@H]1CC[C@@H]2O [E2, estradiol]
serum levels of E2 ([1]; vaginal administration of any dose of E2 in AI users, ref [3]–[14], [15]–[18]): increases
effect on vaginal atrophy [1, 5]: efficiently relieved vaginal atrophy
serum levels of E2 and E1 [1, 5]: temporarily raised
nuclear retention time of the receptor complex [2]: > 12 h
effect on BC cells in vitro (BC cells): can stimulate

t max,C2 ([3]; Visit C2 (day 28), maximum): 8.0 h
AUC(0–24),C2 ([3]; Visit C2 (day 28), maximum): 0.457 ng·h/mL
t max,C2 ([3]; Visit C2 (day 28), minimum): 4.0 h
C max,C2 ([3]; Visit C2 (day 28), minimum, LLOQ E3 10.00 pg/ml): <LLOQ
AUC(0–24),C2 ([3]; Visit C2 (day 28), minimum): <LLOQ
C max,E ([3]; Visit E (day 0), first application, maximum): 0.168 ng/mL
AUC(0–24),E ([3]; Visit E (day 0), maximum): 0.378 ng·h/mL
t max,E ([3]; Visit E (day 0), maximum): 3.1 h
AUC(0–24),E ([3]; Visit E (day 0), minimum): <LLOQ
t max,E ([3]; Visit E (day 0), minimum): 2.0 h
C max,E ([3]; Visit E (day 0), minimum, LLOQ E3 10.00 pg/ml): <LLOQ
women with slightly increased serum E3 ([3]; after 4 weeks): 8 women
patients without detectable increase of E3 [3, 6]: 50%
women whose highest detected E3 level was below 20 pg/ml [3, 6]: 25%
women with transient increase in serum E3 ([3]; after the first application (visit E, day 0)): 15 of 16
trough serum E3 levels ([3]; all visits, all except two subjects, LLOQ 10.00 pg/ml): below LLOQ
AUC(0-t) ([3]; female, human, AUC(0–24),C2, Visit C2 (day 28), mean, n=15, not reliable due to late metabolism and insufficient testing points): 0.131 ng·h/mL
AUC(0-t) ([3]; female, human, AUC(0–24),E, Visit E (day 0), GeoMean): 0.154 ng·h/mL
AUC(0-t) ([3]; female, human, AUC(0–24),E, Visit E (day 0), mean, n=16): 0.212 ng·h/mL
AUC(0-t) ([3]; female, human, AUC(0–24),E, Visit E (day 0), median): 0.241 ng·h/mL
Cmax ([3]; female, human, C max,C2, Visit C2 (day 28), GeoMean): 0.011 ng/mL
Cmax ([3]; female, human, C max,C2, Visit C2 (day 28), mean, n=16): 0.0158 ng/mL
Cmax ([3]; female, human, C max,C2, Visit C2 (day 28), median): 0.0091 ng/mL
Cmax ([3]; female, human, C max,E, Visit E (day 0), GeoMean): 0.0882 ng/mL
Cmax ([3]; female, human, C max,E, Visit E (day 0), mean, n=16): 0.104 ng/mL
Cmax ([3]; female, human, C max,E, Visit E (day 0), median): 0.11 ng/mL
concentration at -0.5 h ([3]; female, human, E3 baseline and trough, maximum, visit C1 (week 2)): 0.0492 ng/mL
concentration at -0.5 h ([3]; female, human, E3 baseline and trough, maximum, visit C2 (week 4)): 0.0145 ng/mL
concentration at -0.5 h ([3]; female, human, serum estriol (E3) concentration, Visit C2 (day 28), maximum, −0.5 h (pre-dose)): 0.0145 ng/mL
concentration at -0.5 h ([3]; female, human, serum estriol (E3) concentration, Visit C2 (day 28), mean, −0.5 h (pre-dose)): 0.00091 ng/mL
concentration at -0.5 h ([3]; female, human, serum estriol (E3) concentration, Visit C2 (day 28), median, −0.5 h (pre-dose)): 0 ng/mL
concentration at -0.5 h ([3]; female, human, serum estriol (E3) concentration, Visit C2 (day 28), minimum, −0.5 h (pre-dose)): 0 ng/mL
concentration at -0.5 h ([3]; female, human, serum estriol (E3) concentration, Visit E (day 0), maximum, −0.5 h (pre-dose)): 0 ng/mL
concentration at -0.5 h ([3]; female, human, serum estriol (E3) concentration, Visit E (day 0), mean, −0.5 h (pre-dose)): 0 ng/mL
concentration at -0.5 h ([3]; female, human, serum estriol (E3) concentration, Visit E (day 0), median, −0.5 h (pre-dose)): 0 ng/mL
concentration at -0.5 h ([3]; female, human, serum estriol (E3) concentration, Visit E (day 0), minimum, −0.5 h (pre-dose)): 0 ng/mL
Tmax ([3]; female, human, t max,C2, Visit C2 (day 28), mean, n=8): 7.2 h
Tmax ([3]; female, human, t max,C2, Visit C2 (day 28), median): 7.9 h
Tmax ([3]; female, human, t max,E, Visit E (day 0), mean, n=15): 2.5 h
Tmax ([3]; female, human, t max,E, Visit E (day 0), median): 2.2 h
exposure (AUC0–24) at end of initial therapy compared with study entry ([3]; human, in vivo): significantly lower
concentration at -0.5 h ([3]; human, trough E3 serum concentration, one subject, visit C1): 0.0223 ng/mL
E3 baseline and trough ([3]; maximum, visit C1 (week 2)): 49.20 pg/mL
E3 baseline and trough ([3]; maximum, visit C2 (week 4)): 14.50 pg/mL
E3 baseline and trough ([3]; maximum, visit C3 (week 8)): 0.00 pg/mL
E3 baseline and trough ([3]; maximum, visit C4 (week 12)): 0.00 pg/mL
E3 baseline and trough ([3]; maximum, visit E (day 0, baseline)): 0.00 pg/mL
E3 baseline and trough ([3]; mean (SD), visit C1 (week 2), n=14): 5.11 (14.01)^a pg/ml
E3 baseline and trough ([3]; mean (SD), visit C2 (week 4)): 0.91(3.63) pg/ml
E3 baseline and trough ([3]; mean (SD), visit C3 (week 8)): 0.00 pg/mL
E3 baseline and trough ([3]; mean (SD), visit C4 (week 12)): 0.00 pg/mL
E3 baseline and trough ([3]; mean (SD), visit E (day 0, baseline)): 0.00 pg/mL
E3 baseline and trough ([3]; minimum, visit C1 (week 2)): 0.00 pg/mL
E3 baseline and trough ([3]; minimum, visit C2 (week 4)): 0.00 pg/mL
E3 baseline and trough ([3]; minimum, visit C3 (week 8)): 0.00 pg/mL
E3 baseline and trough ([3]; minimum, visit C4 (week 12)): 0.00 pg/mL
E3 baseline and trough ([3]; minimum, visit E (day 0, baseline)): 0.00 pg/mL
C max at visit C2 compared to visit E ([3]; p < 0.0001): significantly lower
subjects without any quantifiable concentration of E3 ([3]; visit C2 (day 28)): half
time of serum E3 increase post-insertion ([3]; visit C2 (day 28)): 6 to 8 h
time of C max post-insertion ([3]; visit E (day 0), first application): 2 to 3 h
SMILES: C[C@]12CC[C@@H]3c4ccc(O)cc4CC[C@H]3[C@@H]1C[C@@H](O)[C@@H]2O [E3, estriol]
serum E2 or E3 ([1]; vaginal 0.25 mg E3 twice weekly, 12 weeks, no PK values determined): no increase
serum levels of E3 ([1]; vaginal application of conventional 0.50 mg dose of E3, ref [8]–[39]): increased
affinity to the nuclear ER as compared to E2 (nuclear ER): 10 times lower
nuclear retention time of the receptor complex [2]: < 6 h
association with risk of BC (breast cancer): neither the use of vaginal E2 and E3 preparations nor oral E3 were associated with a risk of BC
effect on BC cells in vitro (BC cells): can stimulate
metabolism into E1 or E2 ([4]; E3 is an end product of estrogen metabolism): cannot be transformed back
metabolic clearance [4]: rapid
vaginal absorption as the vaginal epithelium matures ([4]; within a few days to weeks after start of vaginal treatment): decreases

Source: article PMC4025172 (Breast Cancer Research and Treatment, 2014)
